The conditions of the data set: 298.15 K; 101.33 kPa; Liquid; Alternating current cell with electrodes.

Numbers after ± are expanded uncertainties.

For `O` [water], the electrical conductivity amounted to 0.000129 ± 1e-06 S/m.
